{
  "source": "patent US20240148625A1",
  "about": "“Estolide Esters For The Cosmetic Treatment Of Skin” (CLARIANT INTERNATIONAL LTD, priority 2020, published 2024)",
  "key": {"[1]": {"test": "Pigment wetting: viscosity difference rate of pigment dispersion", "assay_type": "physicochemical", "conditions": "65% emollient with 35% red iron oxide; rheometer 20.0° C., 10.0 1/s; lower = better pigment wetting", "excerpt": "The viscosity of a pigment dispersion in oil is negatively correlated to the dispersion efficacy of the carrier liquid emollient. Therefore, decreased viscosities confirm the homogeneity of the dispersion. To calculate the viscosity difference rate between the pure emollient without added pigment and the pigment dispersion, the following formula will be used: Viscosity difference rate=(viscosity value after pigment dispersion−viscosity value before pigment dispersion)/(viscosity value before pigment dispersion) The lower the viscosity difference rate the better the pigment wetting. Mixtures of 65% emollient with 35% pigment (red iron oxide) were homogenized and analyzed*. [table]"}, "[2]": {"test": "Pigment dispersion: particle size by Grindometer", "assay_type": "physicochemical", "conditions": "65% emollient with 35% yellow iron oxide, next day, average of 3", "excerpt": "Mixtures of 65% emollient with 35% pigment (yellow iron oxide) were homogenized and analyzed*. [table]"}},
  "data": [
    {"substance": "Pentaerythrityl Tetraisostearate", "values": [
      {"measurement": "Viscosity difference rate", "setting": "[1]", "value": 21},
      {"measurement": "Average particle size", "setting": "[2]", "value": 31, "unit": "μm"}
    ]}
  ]
}
